Assay results from the kinase profiling compilation of Christmann-Franck et al. (2016).

How the values were obtained:
Assay in all cases: KINOMEscan competition binding
[1] = molecular target: CDC2L2 (human) (UniProt Q9UQ88)
[2] = molecular target: EPHA2 (human) (UniProt P29317)
[3] = test system: FLT3 (human), P36888 [D835H]
[4] = molecular target: TLK1 (human) (UniProt Q9UKI8)
[5] = test system: CPK1 (P.falciparum)
[6] = molecular target: CDK3 (human) (UniProt Q00526)
[7] = molecular target: MAP3K9 (human) (UniProt P80192)
[8] = molecular target: PRKCQ (human) (UniProt Q04759)
[9] = molecular target: MAP4K4 (human) (UniProt O95819)
[10] = molecular target: CAMK1D (human) (UniProt Q8IU85)
[11] = molecular target: CDKL5 (human) (UniProt O76039)
[12] = test system: KIT (human), P10721 [V559D]
[13] = test system: MET (human), P08581 [M1250T]
[14] = molecular target: EPHA4 (human) (UniProt P54764)
[15] = molecular target: CDK5 (human) (UniProt Q00535)
[16] = molecular target: CDC42BPB (human) (UniProt Q9Y5S2)
[17] = molecular target: PIK3CA (human) (UniProt P42336)
[18] = test system: FLT3 (human), P36888 [R834Q]
[19] = molecular target: CRK2 (P.falciparum) (UniProt P61075)
[20] = molecular target: PRKX (human) (UniProt P51817)
[21] = molecular target: PAK1 (human) (UniProt Q13153)
[22] = molecular target: NEK7 (human) (UniProt Q8TDX7)
[23] = molecular target: TAOK1 (human) (UniProt Q7L7X3)
[24] = molecular target: SRPK3 (human) (UniProt Q9UPE1)
[25] = molecular target: RIOK1 (human) (UniProt Q9BRS2)
[26] = test system: PIK3CA (human), P42336 [E545A]
[27] = test system: EGFR (human), P00533 [T790M/L858R]
[28] = molecular target: SGK110 (human) (UniProt P0C264)
[29] = molecular target: MAP4K5 (human) (UniProt Q9Y4K4)
[30] = molecular target: BRSK1 (human) (UniProt Q8TDC3)
[31] = molecular target: MINK1 (human) (UniProt Q8N4C8)
[32] = molecular target: ERBB2 (human) (UniProt P04626)
[33] = molecular target: RPS6KA2 KD1 (human) (UniProt Q15349)
[34] = molecular target: SRPK2 (human) (UniProt P78362)
[35] = molecular target: ULK1 (human) (UniProt O75385)
[36] = molecular target: FLT1 (human) (UniProt P17948)
[37] = molecular target: STK10 (human) (UniProt O94804)
[38] = test system: RET (human), P07949 [M918T]
[39] = molecular target: CSNK1A1L (human) (UniProt Q8N752)
[40] = molecular target: GRK7 (human) (UniProt Q8WTQ7)
[41] = molecular target: ACVR2B (human) (UniProt Q13705)
[42] = molecular target: DDR1 (human) (UniProt Q08345)
[43] = test system: KIT (human), P10721 [L576P]
Sequence of KIT (human), P10721 [L576P] (P10721 whole entry L576P, looked up): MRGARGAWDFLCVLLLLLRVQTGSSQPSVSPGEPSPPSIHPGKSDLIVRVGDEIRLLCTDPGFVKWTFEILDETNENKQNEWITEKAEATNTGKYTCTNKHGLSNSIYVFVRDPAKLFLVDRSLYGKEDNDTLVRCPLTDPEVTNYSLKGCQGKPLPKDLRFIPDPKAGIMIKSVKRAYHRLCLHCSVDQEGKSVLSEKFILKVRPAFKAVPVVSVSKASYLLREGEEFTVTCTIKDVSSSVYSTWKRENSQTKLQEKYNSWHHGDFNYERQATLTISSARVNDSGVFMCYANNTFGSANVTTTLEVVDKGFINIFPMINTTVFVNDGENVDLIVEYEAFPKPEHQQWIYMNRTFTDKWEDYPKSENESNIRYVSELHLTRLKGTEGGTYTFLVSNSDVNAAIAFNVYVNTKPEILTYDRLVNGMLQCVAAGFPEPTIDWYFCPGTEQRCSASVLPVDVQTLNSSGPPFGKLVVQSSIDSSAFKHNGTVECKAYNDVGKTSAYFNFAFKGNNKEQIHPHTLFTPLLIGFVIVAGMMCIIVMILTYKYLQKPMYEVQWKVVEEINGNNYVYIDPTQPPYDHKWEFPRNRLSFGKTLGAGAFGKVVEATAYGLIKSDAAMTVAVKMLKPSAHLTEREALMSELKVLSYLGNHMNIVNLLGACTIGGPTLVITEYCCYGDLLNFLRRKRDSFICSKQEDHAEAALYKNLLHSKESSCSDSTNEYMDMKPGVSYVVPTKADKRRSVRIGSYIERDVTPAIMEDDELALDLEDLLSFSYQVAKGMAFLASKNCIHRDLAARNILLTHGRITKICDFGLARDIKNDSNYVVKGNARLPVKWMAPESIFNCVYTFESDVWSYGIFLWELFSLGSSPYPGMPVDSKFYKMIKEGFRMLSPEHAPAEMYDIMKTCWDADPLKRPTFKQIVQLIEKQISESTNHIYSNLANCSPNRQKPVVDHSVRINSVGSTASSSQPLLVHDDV

Sequence of STK10 (human) (O94804 whole entry, looked up): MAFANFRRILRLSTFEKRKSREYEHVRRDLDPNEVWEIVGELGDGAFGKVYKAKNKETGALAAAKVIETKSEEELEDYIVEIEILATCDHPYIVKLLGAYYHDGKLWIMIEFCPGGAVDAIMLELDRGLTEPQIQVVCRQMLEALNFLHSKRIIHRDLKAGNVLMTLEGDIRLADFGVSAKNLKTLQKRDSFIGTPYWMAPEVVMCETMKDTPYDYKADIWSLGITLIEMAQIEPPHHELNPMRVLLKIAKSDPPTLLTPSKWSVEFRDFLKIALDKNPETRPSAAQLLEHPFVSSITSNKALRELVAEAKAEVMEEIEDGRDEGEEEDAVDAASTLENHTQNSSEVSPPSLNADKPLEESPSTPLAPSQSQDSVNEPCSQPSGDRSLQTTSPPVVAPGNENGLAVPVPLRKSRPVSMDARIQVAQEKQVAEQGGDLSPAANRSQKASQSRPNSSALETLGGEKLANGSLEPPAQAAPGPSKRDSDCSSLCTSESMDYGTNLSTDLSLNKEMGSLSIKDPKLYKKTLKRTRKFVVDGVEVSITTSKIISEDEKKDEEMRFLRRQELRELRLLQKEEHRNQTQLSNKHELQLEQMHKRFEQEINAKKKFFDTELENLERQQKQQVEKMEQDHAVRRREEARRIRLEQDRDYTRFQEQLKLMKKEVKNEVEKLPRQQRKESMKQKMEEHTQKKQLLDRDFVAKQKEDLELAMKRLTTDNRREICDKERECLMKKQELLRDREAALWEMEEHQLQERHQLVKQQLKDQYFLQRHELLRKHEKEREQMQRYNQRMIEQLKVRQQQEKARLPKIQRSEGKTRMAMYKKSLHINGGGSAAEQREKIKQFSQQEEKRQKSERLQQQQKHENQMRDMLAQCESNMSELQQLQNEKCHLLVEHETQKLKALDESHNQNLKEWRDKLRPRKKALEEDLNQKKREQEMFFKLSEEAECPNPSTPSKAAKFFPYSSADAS
Sequence of PRKCQ (human) (Q04759 whole entry, looked up): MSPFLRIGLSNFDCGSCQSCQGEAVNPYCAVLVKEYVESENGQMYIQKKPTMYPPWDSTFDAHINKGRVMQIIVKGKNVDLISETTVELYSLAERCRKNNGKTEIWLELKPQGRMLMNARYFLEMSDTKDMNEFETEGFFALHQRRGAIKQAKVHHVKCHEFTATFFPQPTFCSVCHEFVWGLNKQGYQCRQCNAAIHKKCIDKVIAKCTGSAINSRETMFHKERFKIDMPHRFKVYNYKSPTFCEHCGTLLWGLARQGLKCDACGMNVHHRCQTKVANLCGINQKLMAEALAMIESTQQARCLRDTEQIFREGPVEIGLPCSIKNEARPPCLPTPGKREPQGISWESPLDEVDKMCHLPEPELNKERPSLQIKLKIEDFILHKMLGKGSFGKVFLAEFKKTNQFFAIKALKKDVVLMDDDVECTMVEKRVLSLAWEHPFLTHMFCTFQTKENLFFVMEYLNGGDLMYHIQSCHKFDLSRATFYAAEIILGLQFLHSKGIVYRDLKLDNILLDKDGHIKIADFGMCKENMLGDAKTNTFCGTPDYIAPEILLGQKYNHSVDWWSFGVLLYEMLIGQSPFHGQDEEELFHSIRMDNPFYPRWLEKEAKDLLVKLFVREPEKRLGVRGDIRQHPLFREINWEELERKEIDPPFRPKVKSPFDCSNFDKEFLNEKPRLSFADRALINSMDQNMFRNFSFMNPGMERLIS
Sequence of DDR1 (human) (Q08345 whole entry, looked up): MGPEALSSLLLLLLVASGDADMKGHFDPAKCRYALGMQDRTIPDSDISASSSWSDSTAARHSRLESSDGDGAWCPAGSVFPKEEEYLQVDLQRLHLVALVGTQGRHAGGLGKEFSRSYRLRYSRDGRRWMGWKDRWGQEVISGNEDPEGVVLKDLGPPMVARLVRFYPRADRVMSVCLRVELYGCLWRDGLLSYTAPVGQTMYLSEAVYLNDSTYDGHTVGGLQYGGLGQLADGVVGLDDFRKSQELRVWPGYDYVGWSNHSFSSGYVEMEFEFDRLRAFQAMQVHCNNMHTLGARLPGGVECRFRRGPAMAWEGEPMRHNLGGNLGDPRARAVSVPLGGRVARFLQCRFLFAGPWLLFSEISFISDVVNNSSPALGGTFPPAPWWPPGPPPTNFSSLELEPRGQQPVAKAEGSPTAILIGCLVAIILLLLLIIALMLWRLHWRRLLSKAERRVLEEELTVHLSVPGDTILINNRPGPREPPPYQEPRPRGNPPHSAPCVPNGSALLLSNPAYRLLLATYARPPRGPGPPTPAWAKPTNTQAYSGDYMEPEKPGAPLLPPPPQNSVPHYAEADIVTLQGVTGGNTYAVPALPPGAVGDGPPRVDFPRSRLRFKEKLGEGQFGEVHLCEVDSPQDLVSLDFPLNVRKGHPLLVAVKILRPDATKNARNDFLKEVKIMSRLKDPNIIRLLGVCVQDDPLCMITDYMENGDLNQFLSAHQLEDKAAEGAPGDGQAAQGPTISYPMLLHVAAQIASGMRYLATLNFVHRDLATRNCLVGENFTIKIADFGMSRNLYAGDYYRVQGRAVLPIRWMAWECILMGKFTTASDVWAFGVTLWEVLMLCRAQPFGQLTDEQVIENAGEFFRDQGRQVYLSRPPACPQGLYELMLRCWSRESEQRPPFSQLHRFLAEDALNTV
Sequence of TAOK1 (human) (Q7L7X3 whole entry, looked up): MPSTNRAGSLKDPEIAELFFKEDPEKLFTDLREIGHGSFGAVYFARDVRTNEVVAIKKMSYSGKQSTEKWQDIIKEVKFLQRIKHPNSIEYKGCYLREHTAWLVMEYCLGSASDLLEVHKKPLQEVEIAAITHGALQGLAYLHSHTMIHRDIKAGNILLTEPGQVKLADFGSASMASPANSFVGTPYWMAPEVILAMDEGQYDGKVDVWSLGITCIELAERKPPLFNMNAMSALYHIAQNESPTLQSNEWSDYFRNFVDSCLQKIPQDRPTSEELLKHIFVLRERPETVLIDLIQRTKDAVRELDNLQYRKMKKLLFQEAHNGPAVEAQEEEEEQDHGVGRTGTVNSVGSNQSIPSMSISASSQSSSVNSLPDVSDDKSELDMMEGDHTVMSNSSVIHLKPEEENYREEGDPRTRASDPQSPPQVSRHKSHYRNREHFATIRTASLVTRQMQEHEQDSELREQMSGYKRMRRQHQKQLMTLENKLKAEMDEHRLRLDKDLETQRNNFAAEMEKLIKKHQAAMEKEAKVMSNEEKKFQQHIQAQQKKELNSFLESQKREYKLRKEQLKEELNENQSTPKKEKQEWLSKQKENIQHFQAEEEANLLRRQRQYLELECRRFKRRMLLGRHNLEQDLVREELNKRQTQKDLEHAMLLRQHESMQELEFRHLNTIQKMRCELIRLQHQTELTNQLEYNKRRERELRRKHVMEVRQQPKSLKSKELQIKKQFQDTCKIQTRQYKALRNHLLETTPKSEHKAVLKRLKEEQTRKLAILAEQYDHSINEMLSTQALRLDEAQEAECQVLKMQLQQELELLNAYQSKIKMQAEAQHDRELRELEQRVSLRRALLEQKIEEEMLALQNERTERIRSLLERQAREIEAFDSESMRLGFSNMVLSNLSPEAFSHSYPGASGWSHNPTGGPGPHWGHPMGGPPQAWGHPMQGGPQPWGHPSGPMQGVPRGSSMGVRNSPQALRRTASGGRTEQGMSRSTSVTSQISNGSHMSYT
Sequence of CSNK1A1L (human) (Q8N752 whole entry, looked up): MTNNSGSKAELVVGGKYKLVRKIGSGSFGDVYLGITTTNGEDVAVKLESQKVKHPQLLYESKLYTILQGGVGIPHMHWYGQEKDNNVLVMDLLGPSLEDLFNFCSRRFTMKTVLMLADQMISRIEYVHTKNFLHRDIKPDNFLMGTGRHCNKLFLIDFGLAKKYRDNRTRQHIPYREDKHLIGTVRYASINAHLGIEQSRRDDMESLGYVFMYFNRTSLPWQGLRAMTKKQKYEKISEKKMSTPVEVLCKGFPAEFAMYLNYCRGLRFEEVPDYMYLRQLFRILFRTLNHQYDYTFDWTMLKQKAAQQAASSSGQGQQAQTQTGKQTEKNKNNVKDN
Sequence of KIT (human), P10721 [V559D] (P10721 whole entry V559D, looked up): as the sequence (P10721 whole entry L576P, looked up) above, with V559D, P576L counted along it

## CN(C)C/C=C/C(=O)Nc1cccc(C(=O)Nc2ccc(Nc3nccc(-c4c(-c5ccccc5)nn5ccccc45)n3)cc2)c1
[1]; compound 1.0 µM
  kinase still bound, per cent of control: 32%
[2]; compound 1.0 µM
  kinase still bound, per cent of control: 76%
[3]; compound 1.0 µM
  kinase still bound, per cent of control: 13%
[4]; compound 1.0 µM
  kinase still bound, per cent of control: 67%
[5]; compound 1.0 µM
  kinase still bound, per cent of control: 0.6%
[6]; compound 1.0 µM
  kinase still bound, per cent of control: 100%
[7]; compound 1.0 µM
  kinase still bound, per cent of control: 59%
[8]; compound 1.0 µM
  kinase still bound, per cent of control: 28%
[9]; compound 1.0 µM
  kinase still bound, per cent of control: 9.8%
[10]; compound 1.0 µM
  kinase still bound, per cent of control: 100%
[11]; compound 1.0 µM
  kinase still bound, per cent of control: 100%
[12]; compound 1.0 µM
  kinase still bound, per cent of control: 0.6%
[13]; compound 1.0 µM
  kinase still bound, per cent of control: 70%
[14]; compound 1.0 µM
  kinase still bound, per cent of control: 89%
[15]; compound 1.0 µM
  kinase still bound, per cent of control: 100%
[16]; compound 1.0 µM
  kinase still bound, per cent of control: 16%
[17]; compound 1.0 µM
  kinase still bound, per cent of control: 99%
[18]; compound 1.0 µM
  kinase still bound, per cent of control: 68%
[19]; compound 1.0 µM
  kinase still bound, per cent of control: 100%
[20]; compound 1.0 µM
  kinase still bound, per cent of control: 94%
[21]; compound 1.0 µM
  kinase still bound, per cent of control: 98%
[22]; compound 1.0 µM
  kinase still bound, per cent of control: 100%
[23]; compound 1.0 µM
  kinase still bound, per cent of control: 40%
[24]; compound 1.0 µM
  kinase still bound, per cent of control: 100%
[25]; compound 1.0 µM
  kinase still bound, per cent of control: 100%
[26]; compound 1.0 µM
  kinase still bound, per cent of control: 100%
[27]; compound 1.0 µM
  kinase still bound, per cent of control: 36%
[28]; compound 1.0 µM
  kinase still bound, per cent of control: 100%
[29]; compound 1.0 µM
  kinase still bound, per cent of control: 27%
[30]; compound 1.0 µM
  kinase still bound, per cent of control: 86%
[31]; compound 1.0 µM
  kinase still bound, per cent of control: 46%
[32]
  Kd: 230 nM
[32]; compound 1.0 µM
  kinase still bound, per cent of control: 0.4%
[33]; compound 1.0 µM
  kinase still bound, per cent of control: 86%
[34]; compound 1.0 µM
  kinase still bound, per cent of control: 85%
[35]; compound 1.0 µM
  kinase still bound, per cent of control: 87%
[36]; compound 1.0 µM
  kinase still bound, per cent of control: 9.3%
[37]; compound 1.0 µM
  kinase still bound, per cent of control: 23%
[38]; compound 1.0 µM
  kinase still bound, per cent of control: 10%
[39]; compound 1.0 µM
  kinase still bound, per cent of control: 5.5%
[40]; compound 1.0 µM
  kinase still bound, per cent of control: 86%
[41]; compound 1.0 µM
  kinase still bound, per cent of control: 9.6%
[42]; compound 1.0 µM
  kinase still bound, per cent of control: 0%
[43]; compound 1.0 µM
  kinase still bound, per cent of control: 3%

## Cc1ccc(NC(=O)c2ccc(NC(=O)/C=C/CN(C)C)cc2)cc1Nc1nccc(-c2cccnc2)n1
[1]; compound 10.0 µM
  kinase still bound, per cent of control: 100%
[2]; compound 10.0 µM
  kinase still bound, per cent of control: 90%
[3]; compound 10.0 µM
  kinase still bound, per cent of control: 66%
[4]; compound 10.0 µM
  kinase still bound, per cent of control: 74%
[5]; compound 10.0 µM
  kinase still bound, per cent of control: 86%
[6]; compound 10.0 µM
  kinase still bound, per cent of control: 100%
[7]; compound 10.0 µM
  kinase still bound, per cent of control: 100%
[8]; compound 10.0 µM
  kinase still bound, per cent of control: 100%
[9]; compound 10.0 µM
  kinase still bound, per cent of control: 78%
[10]; compound 10.0 µM
  kinase still bound, per cent of control: 85%
[11]; compound 10.0 µM
  kinase still bound, per cent of control: 100%
[12]; compound 10.0 µM
  kinase still bound, per cent of control: 0%
[13]; compound 10.0 µM
  kinase still bound, per cent of control: 100%
[14]; compound 10.0 µM
  kinase still bound, per cent of control: 100%
[15]; compound 10.0 µM
  kinase still bound, per cent of control: 100%
[16]; compound 10.0 µM
  kinase still bound, per cent of control: 78%
[17]; compound 10.0 µM
  kinase still bound, per cent of control: 100%
[18]; compound 10.0 µM
  kinase still bound, per cent of control: 56%
[19]; compound 10.0 µM
  kinase still bound, per cent of control: 100%
[20]; compound 10.0 µM
  kinase still bound, per cent of control: 43%
[21]; compound 10.0 µM
  kinase still bound, per cent of control: 89%
[22]; compound 10.0 µM
  kinase still bound, per cent of control: 20%
[23]; compound 10.0 µM
  kinase still bound, per cent of control: 46%
[24]; compound 10.0 µM
  kinase still bound, per cent of control: 76%
[25]; compound 10.0 µM
  kinase still bound, per cent of control: 34%
[26]; compound 10.0 µM
  kinase still bound, per cent of control: 100%
[27]; compound 10.0 µM
  kinase still bound, per cent of control: 100%
[28]; compound 10.0 µM
  kinase still bound, per cent of control: 85%
[29]; compound 10.0 µM
  kinase still bound, per cent of control: 93%
[30]; compound 10.0 µM
  kinase still bound, per cent of control: 53%
[31]; compound 10.0 µM
  kinase still bound, per cent of control: 64%
[32]; compound 10.0 µM
  kinase still bound, per cent of control: 50%
[33]; compound 10.0 µM
  kinase still bound, per cent of control: 76%
[34]; compound 10.0 µM
  kinase still bound, per cent of control: 100%
[35]; compound 10.0 µM
  kinase still bound, per cent of control: 23%
[36]; compound 10.0 µM
  kinase still bound, per cent of control: 91%
[37]; compound 10.0 µM
  kinase still bound, per cent of control: 89%
[38]; compound 10.0 µM
  kinase still bound, per cent of control: 81%
[39]; compound 10.0 µM
  kinase still bound, per cent of control: 100%
[40]; compound 10.0 µM
  kinase still bound, per cent of control: 82%
[41]; compound 10.0 µM
  kinase still bound, per cent of control: 84%
[42]; compound 10.0 µM
  kinase still bound, per cent of control: 0.15%
[43]; compound 10.0 µM
  kinase still bound, per cent of control: 0%

## CN(C)C/C=C/C(=O)Nc1cccc(C(=O)Nc2ccc(Nc3nccc(/C(C#N)=C4\Nc5ccccc5S4)n3)cc2)c1
[1]; compound 1.0 µM
  kinase still bound, per cent of control: 39%
[2]; compound 1.0 µM
  kinase still bound, per cent of control: 100%
[3]; compound 1.0 µM
  kinase still bound, per cent of control: 62%
[4]; compound 1.0 µM
  kinase still bound, per cent of control: 100%
[5]; compound 1.0 µM
  kinase still bound, per cent of control: 96%
[6]; compound 1.0 µM
  kinase still bound, per cent of control: 100%
[7]; compound 1.0 µM
  kinase still bound, per cent of control: 100%
[8]; compound 1.0 µM
  kinase still bound, per cent of control: 100%
[9]; compound 1.0 µM
  kinase still bound, per cent of control: 100%
[10]; compound 1.0 µM
  kinase still bound, per cent of control: 100%
[11]; compound 1.0 µM
  kinase still bound, per cent of control: 21%
[12]; compound 1.0 µM
  kinase still bound, per cent of control: 11%
[13]; compound 1.0 µM
  kinase still bound, per cent of control: 79%
[14]; compound 1.0 µM
  kinase still bound, per cent of control: 100%
[15]; compound 1.0 µM
  kinase still bound, per cent of control: 100%
[16]; compound 1.0 µM
  kinase still bound, per cent of control: 100%
[17]; compound 1.0 µM
  kinase still bound, per cent of control: 64%
[18]; compound 1.0 µM
  kinase still bound, per cent of control: 100%
[19]; compound 1.0 µM
  kinase still bound, per cent of control: 100%
[20]; compound 1.0 µM
  kinase still bound, per cent of control: 82%
[21]; compound 1.0 µM
  kinase still bound, per cent of control: 100%
[22]; compound 1.0 µM
  kinase still bound, per cent of control: 100%
[23]; compound 1.0 µM
  kinase still bound, per cent of control: 74%
[24]; compound 1.0 µM
  kinase still bound, per cent of control: 82%
[25]; compound 1.0 µM
  kinase still bound, per cent of control: 14%
[26]; compound 1.0 µM
  kinase still bound, per cent of control: 100%
[27]; compound 1.0 µM
  kinase still bound, per cent of control: 100%
[28]; compound 1.0 µM
  kinase still bound, per cent of control: 100%
[29]; compound 1.0 µM
  kinase still bound, per cent of control: 100%
[30]; compound 1.0 µM
  kinase still bound, per cent of control: 90%
[31]; compound 1.0 µM
  kinase still bound, per cent of control: 100%
[32]; compound 1.0 µM
  kinase still bound, per cent of control: 100%
[33]; compound 1.0 µM
  kinase still bound, per cent of control: 98%
[34]; compound 1.0 µM
  kinase still bound, per cent of control: 100%
[35]; compound 1.0 µM
  kinase still bound, per cent of control: 92%
[36]; compound 1.0 µM
  kinase still bound, per cent of control: 32%
[37]; compound 1.0 µM
  kinase still bound, per cent of control: 86%
[38]; compound 1.0 µM
  kinase still bound, per cent of control: 17%
[39]; compound 1.0 µM
  kinase still bound, per cent of control: 100%
[40]; compound 1.0 µM
  kinase still bound, per cent of control: 81%
[41]; compound 1.0 µM
  kinase still bound, per cent of control: 100%
[42]; compound 1.0 µM
  kinase still bound, per cent of control: 59%
[43]; compound 1.0 µM
  kinase still bound, per cent of control: 100%
